pIC50: −log10 of the molar value.
Tests used:
[1] = test system: HDAC (HeLa cell nuclear extract, a mosaic of HDAC enzymes); assay: In vitro fluorescent histone deacetylase (HDAC) activity assay; format: biochemical; settings: HeLa cell nuclear extract as HDAC source, 50 μM substrate, 10 min at room temperature (in some assays recombinant HDAC8); read-out: IC50 HDAC Inhibition
Method: Histone deacetylase (HDAC) activity assays were performed using the HDAC fluorescent activity assay/drug discovery kit (Biomol Research Laboratories, Plymouth Meeting, Pa.) essentially according to the manufacturer's instructions. The included HeLa cell nuclear extract, which contains a mosaic of HDAC enzymes and other nuclear factors, was used as the source of HDAC activity. The final substrate concentration in the assay mixture was 50 μM. The reaction was allowed to proceed for 10 min at room temperature before stopping the reaction. Test compounds were prepared as 20 mM stock solutions in DMSO (Molecular Biology grade, Sigma-Aldrich Co., St. Louis, Mo.) and stored at −70° C. Serial dilutions of test compounds were prepared in assay buffer immediately prior to testing. DMSO was determined in a separate trial to have no significant effect on the activity of this assay at concentrations up to 5%; the final DMSO concentration in the wells was no more than 2% and therefore DMSO effects were safely neglected. Assays were performed in white polystyrene 96-well half-area assay plates (Corning, Corning, N.Y.) and measured on a Wallace 1420 fluorescent plate reader (Wallac Oy, Turku, Finland) with an excitation wavelength of 355 nm, an emission wavelength of 460 nm, and a 1 sec signal averaging time.
In some assays recombinant HDAC8 (Biomol) was used as the source of the enzyme activity; here the final substrate concentration was 250 μM, the final concentration of HDAC8 was 0.02 u/μL and the reaction was allowed to proceed at 37° C. for 1 h before stopping. For all curves, IC50 values were calculated with the GraFit curve-fitting program (Erithacus, Horley, Surrey, UK).

MCF7 cells = assay: Whole cell cytotoxicity assay: Sulforhodamine B; format: cell-based; settings: Homo sapiens, 48 hours with drug, Sulforhodamine B staining
Method: Whole Cell Cytotoxicity Assay:Sulforhodamine B
The following procedure can be found on the Developmental Therapeutics Program NCI/NIH web site at http://dtp.nci.nih.gov/brancehes/btb/ivclsp.html.
1. Human tumor cell lines of HT29, A549 and MCF7 are grown in DMEM containing 10% fetal bovine serum and 2 mM L-glutamine. Cells are plated in a 96 well plate at a density of 5000 cells per well in 100 μL of growth medium and incubated at 37° C., 5% CO2, for 24 hours prior to the addition of experimental compounds.
2. Experimental drugs are solubilized in DMSO for a final concentration of 20 mM immediately prior to use. Drugs are further diluted in growth media for a total of nine drug concentrations and a growth control. At the 24-hour time point, one plate of cells is fixed in situ with TCA as a measurement of the cell population at time zero, or the time of drug addition.
3. The plates are further incubated with drug for an additional 48 hours.
4. The cells are fixed in situ by gently aspirating off the culture media and then adding 50 μL of ice cold 10% TCA per well and incubated at 4° C. for 60 minutes. The plates are washed with tap water five times and allowed to air dry for 5 minute.
5. 50 μl of a 0.4% (w/v) Sulforhodamine B solution in 1% (v/v) acetic acid is added per well and incubated for 30 minutes at room temperature.
6. Following staining, plates are washed five times with 1% acetic acid to remove any unbound dye and then allowed to air dry for 5 minutes.
7. Stain is solubilized with 100 μL of 10 mM Tris pH 10.5 per well and placed on an orbital rotator for 5 minutes.
8. Absorbance is read at 570 nm.

SMILES | pIC50 [1] | GI50 (MCF7 cells)
O=C(NO)c1cnc(N2CCCN(S(=O)(=O)c3ccc4ccccc4c3)CC2)s1 [Example 2, 1-(2-naphthylsulfonyl)-4-(5-hydroxyaminocarbonylthiazol-2-yl)-1,4-diazepane] | 5.23 | 10 µM
O=C(/C=C/c1cnc(N2CCN(S(=O)(=O)c3ccc4ccccc4c3)CC2)s1)NO [Example 4] | 7.35 | 0.7 µM
O=C(/C=C/c1cnc(N2CCN(S(=O)(=O)c3ccccc3)CC2)s1)NO [Example 4b] | 6.36 | 3 µM
COc1ccc(S(=O)(=O)N2CCN(c3ncc(/C=C/C(=O)NO)s3)CC2)cc1OC [Example 4c] | 6.80 | 4 µM
COc1ccc(S(=O)(=O)N2CCN(c3ncc(/C=C/C(=O)NO)s3)CC2)cc1 [Example 4d] | 6.40 | 1 µM
O=C(/C=C/c1cnc(N2CCN(S(=O)(=O)c3ccc(OC(F)(F)F)cc3)CC2)s1)NO [Example 4e] | 5.49 | 6 µM
Cc1ccc(S(=O)(=O)N2CCN(c3ncc(/C=C/C(=O)NO)s3)CC2)cc1 [Example 4f] | 6.26 | 2 µM
O=C(/C=C/c1cnc(N2CCN(S(=O)(=O)c3ccc(C(F)(F)F)cc3)CC2)s1)NO [Example 4g] | 4.84 | 3 µM
O=C(/C=C/c1cnc(N2CCN(S(=O)(=O)c3ccc([N+](=O)[O-])cc3)CC2)s1)NO [Example 4h] | 5.79 | 5 µM
O=C(/C=C/c1cnc(N2CCN(S(=O)(=O)c3cccs3)CC2)s1)NO [Example 4i] | 6.19 | 18 µM
O=C(/C=C/c1cnc(N2CCN(S(=O)(=O)c3ccc(-c4ccccc4)cc3)CC2)s1)NO [Example 4j] | 4.94 | 1.5 µM
CN(C)c1cccc2c(S(=O)(=O)N3CCN(c4ncc(/C=C/C(=O)NO)s4)CC3)cccc12 [Example 4k] | 3.50 | 4 µM
O=C(/C=C/c1cnc(N2CCN(S(=O)(=O)c3ccc(F)cc3)CC2)s1)NO [Example 4m] | 5.33 | 2.5 µM
O=C(NO)c1cnc(N2CCC(NS(=O)(=O)c3ccc4ccccc4c3)CC2)s1 [Example 5] | 7.30 | 6 µM
O=C(NO)c1cnc(N2CCC(NS(=O)(=O)c3ccc(-c4ccccc4)cc3)CC2)s1 [Example 5b] |  | 10 µM
Cc1ccc(S(=O)(=O)NC2CCN(c3ncc(C(=O)NO)s3)CC2)cc1 [Example 5d] |  | 15 µM
O=C(NO)c1cnc(N2CCC(CNS(=O)(=O)c3ccc(-c4ccccc4)cc3)CC2)s1 [Example 5e, 2-(4-{[(1,1′-biphenylsulfonyl)amino]methyl}piperidin-1-yl)-1,3-thiazole-5-carboxylic acid hydroxyamide] |  | 2 µM
O=C(NO)c1cnc(NC2CCN(S(=O)(=O)c3ccc4ccccc4c3)CC2)s1 [Example 5f, 2-{[1-(2-naphthylsulfonyl)piperidin-4-yl]amino}-1,3-thiazole-5-carboxylic acid hydroxyamide] |  | 20 µM
O=C(NO)c1cnc(N2CCN(Cc3ccccc3)CC2)s1 [Example 17, 2-(4-Benzyl-piperazin-1-yl)-thiazole-5-carboxylic acid hydroxyamide] |  | 4 µM
O=C(NO)c1cnc(N2CCN(CCc3ccccc3)CC2)s1 [Example 20, 2-(4-phenylethyl-piperazin-1-yl)-thiazole-5-carboxylic acid hydroxyamide] | 3.93 | 
O=C(CN1CCN(c2ncc(C(=O)NO)s2)CC1)c1ccccc1 [Example 20B, 2-(4-(2-oxo-2-phenylethyl)-piperazin-1-yl)-1,3-thiazole-5-carboxylic acid hydroxyamide] |  | 4 µM
CC(=O)N1CCN(c2ncc(C(=O)NO)s2)CC1 [Example 21, 2-(4-acetyl-piperazin-1-yl)-thiazole-5-carboxylic acid hydroxamide] | 5.56 | 
O=C(NO)c1cnc(N2CCN(C(=O)c3ccccc3)CC2)s1 [Example 22, 2-(4-benzoyl-piperazin-1-yl)-thiazole-5-carboxylic acid hydroxamide] | 5.46 | 40 µM
O=C(NO)c1cnc(N2CCN(C(=O)Cc3ccccc3)CC2)s1 [Example 23, 2-(4-phenylacetyl-piperazin-1-yl)-thiazole-5-carboxylic acid hydroxamide] | 4.50 | 20 µM
O=C(NO)c1cnc(CN2CCN(S(=O)(=O)c3ccc4ccccc4c3)CC2)s1 [Example 24] | 5.16 | 10 µM
O=C(NO)c1cnc(C2CCN(S(=O)(=O)c3ccc(-c4ccccc4)cc3)CC2)s1 [Example 25, 2-[1-(1,1′-biphenyl-4-ylsulfonyl)piperidin-4-yl]-1,3-thiazole-5-carboxylic acid hydroxyamide] | 4.88 | 100 µM

Second part, led by results:

pIC50 [1] | SMILES | GI50 (MCF7 cells)
6.22 | Cc1ccc(S(=O)(=O)NC2C3CN(c4ncc(C(=O)NO)s4)CC32)cc1 (centres unmarked) [Example 5g, 2-(6-{[(4-methylphenyl)sulfonyl]amino}-3-azabicyclo[3.1.0]hex-3-yl)-1,3-thiazole-5-carboxylic acid hydroxyamide] | 8 µM
6.17 | Cc1ccc(S(=O)(=O)N2CCCN(c3ncc(C(=O)NO)s3)C2)cc1 [Example 5h] | 3.5 µM
6.06 | O=C(NO)c1cnc(N2CCN(C(=O)CCc3c[nH]c4ccccc34)CC2)s1 [Example 23b, 2-[4-(3-{1H-indol-3-yl}propanoyl)-piperazin-1-yl]-1,3-thiazole-5-carboxylic acid hydroxyamide] | 30 µM

From patent publication US7345043B2, “Inhibitors of histone deacetylase” (Miikana Therapeutics, priority 2004, dated 2008)
